Results reported in US20240252456A1, “ORAL COMPOSITION, SKIN COSMETIC AND HAIR COSMETIC” (MARUZEN PHARMACEUTICALS CO., LTD., priority 2021, published 2024).

Experiments:
[1] = tested on: Mouse macrophage cells (RAW264.7); assay: Prostaglandin E2 (PGE2) production suppressive action test in mouse macrophages; format: cell-based; conditions: RAW264.7, LPS 1 μg/mL, 16 hours
Description: Mouse macrophage cells (RAW264.7) were cultured using Dulbecco's modified Eagle's medium (DMEM) containing 10% FBS, and then the cells were collected using a cell scraper. The collected cells were diluted with DMEM containing 10% FBS to a concentration of 2.0×10^5 cells/mL, then seeded with 100 μL per well in a 96-well plate, and cultured for 18 hours.
After the culturing was completed, the medium was replaced with a medium containing 500 μmol/L aspirin and cultured for 4 hours in order to acetylate and inactivate the already existing COX-1 and the small amount of COX-2 expressed. After that, the cells were washed three times with PBS(−) buffer solution, 100 μL of the test sample (Sample 1, see Table 29 below for final concentration) dissolved in DMEM containing DMSO at a final concentration of 0.5% and 10% FBS was added to each well, then 100 μL of lipopolysaccharide (LPS) (available from DIFCO, E. coli 0111; B4) dissolved at a final concentration of 1 μg/mL in DMEM containing 10% FBS, and the cells were cultured for 16 hours. As a control, culturing was performed in the same manner using DMEM containing DMSO at a final concentration of 0.5% and 10% FBS to which no sample was added. After the culturing was completed, the amount of prostaglandin E2 in the culture supernatant of each well was determined using PGE2 EIA Kit (available from Cayman Chemical). From the obtained results, the PGE2 production suppression rate (%) was calculated using the following equation.
Terms in the equation represent the following respective ones. • A: PGE2 amount with test sample addition and with LPS stimulation • B: PGE2 amount without sample addition and with LPS stimulation • C: PGE2 amount without sample addition and without LPS stimulation

[2] = tested on: Normal human hair follicle dermal papilla cells (HFDPC); assay: Follicle dermal papilla cell proliferation promotive action test (MTT); format: cell-based; conditions: 100 μmol/L, 4 days
Description: Normal human hair follicle dermal papilla cells (HFDPC, derived from the parietal region of a person) were cultured using follicle dermal papilla cell growth medium (PCGM, available from TOYOBO CO., LTD.) containing 1% FCS and growth additives, and then the cells were collected by a trypsin treatment. The collected cells were diluted to a cell density of 1.0×10^4 cells/mL using Dulbecco's modified Eagle's medium (DMEM) containing 10% FBS, then seeded with 200 μL per well in a collagen-coated 96-well plate, and cultured for 3 days.
After that, the medium was removed, 200 μL of the test sample (Sample 1, see Table 25 below for final concentration) dissolved in serum-free DMEM was added to each well, and culturing was further performed for 4 days. […] After the culturing was completed, the follicle dermal papilla cell proliferation promotive action was measured by MTT assay. […] The absorbance of this extract was measured at 570 nm giving the maximum absorption point of blue formazan. At the same time, the absorbance at a wavelength of 650 nm was measured as turbidity, and the difference between the two was determined as the production amount of blue formazan. From the measurement results, the follicle dermal papilla cell proliferation promotion rate (%) was calculated based on the following equation. […]

AQP3 mRNA = assay: Aquaporin 3 (AQP3) mRNA expression promotive action test; format: cell-based, human; conditions: 100 μmol/L; NHEK, 24 hours, corrected with GAPDH
Description: Normal human neonatal epidermal keratinocytes (NHEK) were precultured using normal human epidermal keratinocyte growth medium (KGM), and the cells were collected by a trypsin treatment. The collected cells were diluted with KGM to a cell density of 15×10^4 cells/mL, then seeded with 2 mL portions in a 6-well plate (30×10^4 cells/well), and cultured overnight under conditions of 37° C. and 5% CO2. After culturing, the medium was replaced with normal human epidermal keratinocyte basal medium (KBM, the above KGM without addition of growth additives (hEGF, BPE, insulin, antibacterial agents, hydrocortisone)), and culturing was further performed for 24 hours.
After culturing for 24 hours, the medium was removed, and 2 mL of the test sample (Sample 1, see Table 17 below for final concentration) dissolved in KBM was added to each well, and culturing was performed under conditions of 37° C. and 5% CO2 for 24 hours. As a control, culturing was performed in the same manner using KBM to which no sample was added. After culturing, the medium was removed, total RNA was extracted using ISOGEN II (available from NIPPON GENE CO., LTD.), each RNA amount was measured using a spectrophotometer, and the total RNA was prepared so as to be 150 ng/μL.
For AQP3 and GAPDH as an internal standard, the expression levels of mRNA were measured using the above total RNA as a template. […]

O=C(O)CCc1ccc(O)c(O)c1 [Sample 1, 3,4-Dihydroxyhydrocinnamic acid]
PGE2 production suppression rate ([1]; 31.25 μmol/L): 17.9%
PGE2 production suppression rate ([1]; 125 μmol/L): 17.7%
PGE2 production suppression rate ([1]; 500 μmol/L): 41.3%
Follicle dermal papilla cell proliferation promotion rate [2]: 124.8%
AQP3 mRNA expression promotion rate (AQP3 mRNA): 207.8%
